Test results published in paper PMC2989642 (The European journal of neuroscience, 2010).
“And” between values parts separate entries of the source, which are not always exact repeats. Identical values can stand only once. Like-named read-outs stand apart in the source and are kept apart here.

How the values were obtained:
[1] = biological target: hetero-oligomeric nAChR binding sites in SCG membranes (Mus musculus, UniProt Q8R493+Q8R4G9)
[2] = biological target: nAChRs in adult (intact) mouse SCG; settings: read-out: KD of [3H]-epibatidine binding, ref Del Signore et al., 2002; cited from earlier work
hα3β4 = settings: ref Nelson et al., 2001, cited from earlier work
[3] = biological target: α3β2 receptors (in the α5β4 KO) (Mus musculus, UniProt Q8R4G9+Q9ERK7); experiment: cell-based; format: cell-based
Chain of α3β2 receptors (in the α5β4 KO) (Q8R4G9 26-499): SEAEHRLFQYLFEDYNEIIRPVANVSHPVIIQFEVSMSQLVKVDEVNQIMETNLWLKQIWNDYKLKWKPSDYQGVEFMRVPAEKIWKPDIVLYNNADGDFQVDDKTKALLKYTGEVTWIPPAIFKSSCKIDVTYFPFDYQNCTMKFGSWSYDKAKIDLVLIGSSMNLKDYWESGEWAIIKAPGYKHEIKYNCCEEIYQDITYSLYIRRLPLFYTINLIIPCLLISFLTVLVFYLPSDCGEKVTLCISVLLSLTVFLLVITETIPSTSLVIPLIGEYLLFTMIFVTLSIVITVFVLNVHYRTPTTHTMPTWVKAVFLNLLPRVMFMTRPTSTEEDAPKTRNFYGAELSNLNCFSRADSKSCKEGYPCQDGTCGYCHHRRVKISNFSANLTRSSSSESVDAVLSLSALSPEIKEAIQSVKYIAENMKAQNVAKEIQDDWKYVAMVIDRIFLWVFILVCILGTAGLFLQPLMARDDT
Chain of α3β2 receptors (in the α5β4 KO) (Q9ERK7 26-501): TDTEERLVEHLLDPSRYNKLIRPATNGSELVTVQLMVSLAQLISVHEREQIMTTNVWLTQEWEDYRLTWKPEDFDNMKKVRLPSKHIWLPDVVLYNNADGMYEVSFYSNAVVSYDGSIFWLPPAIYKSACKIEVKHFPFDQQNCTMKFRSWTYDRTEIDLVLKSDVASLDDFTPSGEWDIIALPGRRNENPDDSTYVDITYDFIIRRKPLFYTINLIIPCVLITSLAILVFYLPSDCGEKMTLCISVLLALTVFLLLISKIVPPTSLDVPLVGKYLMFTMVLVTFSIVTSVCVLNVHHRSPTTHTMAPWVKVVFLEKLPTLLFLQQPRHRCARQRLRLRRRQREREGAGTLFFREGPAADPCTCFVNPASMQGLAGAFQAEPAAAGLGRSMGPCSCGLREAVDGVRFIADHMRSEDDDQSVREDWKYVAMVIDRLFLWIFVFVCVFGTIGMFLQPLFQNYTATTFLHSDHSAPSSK

[4] = biological target: α3β4α5 receptors (in the β2 KO) (Mus musculus, UniProt Q8R493+Q8R4G9); format: cell-based
Chain of α3β4α5 receptors (in the β2 KO) (Q8R4G9 26-499): as the sequence (Q8R4G9 26-499) above
Chain of α3β4α5 receptors (in the β2 KO) (Q8R493 21-495): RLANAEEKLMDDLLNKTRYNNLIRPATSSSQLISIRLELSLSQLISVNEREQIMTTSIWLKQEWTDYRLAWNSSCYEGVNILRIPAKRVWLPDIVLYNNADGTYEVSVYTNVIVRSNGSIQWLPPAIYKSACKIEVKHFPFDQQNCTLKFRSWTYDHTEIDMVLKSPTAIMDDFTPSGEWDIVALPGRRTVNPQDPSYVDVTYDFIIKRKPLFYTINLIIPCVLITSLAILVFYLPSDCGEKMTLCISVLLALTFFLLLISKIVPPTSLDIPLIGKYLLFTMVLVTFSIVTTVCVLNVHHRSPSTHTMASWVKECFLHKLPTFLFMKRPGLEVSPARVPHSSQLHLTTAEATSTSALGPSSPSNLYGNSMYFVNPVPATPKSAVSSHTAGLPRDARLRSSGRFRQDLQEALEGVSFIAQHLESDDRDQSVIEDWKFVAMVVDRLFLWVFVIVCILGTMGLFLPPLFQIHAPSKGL
Chain of α3β4α5 receptors (in the β2 KO) (Q2MKA5 30-467 partner): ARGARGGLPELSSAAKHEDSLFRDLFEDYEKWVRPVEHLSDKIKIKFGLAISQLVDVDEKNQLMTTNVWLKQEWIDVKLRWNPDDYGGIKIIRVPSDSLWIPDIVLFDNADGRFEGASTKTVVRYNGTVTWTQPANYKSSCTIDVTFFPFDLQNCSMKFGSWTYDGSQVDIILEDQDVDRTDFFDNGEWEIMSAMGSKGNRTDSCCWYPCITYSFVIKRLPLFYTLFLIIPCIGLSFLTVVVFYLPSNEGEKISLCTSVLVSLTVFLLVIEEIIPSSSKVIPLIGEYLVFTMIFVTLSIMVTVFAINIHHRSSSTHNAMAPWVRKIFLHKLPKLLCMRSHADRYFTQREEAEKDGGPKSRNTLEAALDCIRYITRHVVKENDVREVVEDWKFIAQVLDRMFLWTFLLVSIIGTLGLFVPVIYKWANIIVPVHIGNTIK

[5] = biological target: α3β4 receptors (in the α5β2 KO) (Mus musculus, UniProt Q8R493+Q8R4G9); experiment: cell-based
Chain of α3β4 receptors (in the α5β2 KO) (Q8R4G9 26-499): as the sequence (Q8R4G9 26-499) above
Chain of α3β4 receptors (in the α5β2 KO) (Q8R493 21-495): as the sequence (Q8R493 21-495) above

hα3α5β4 = settings: probed with 300 μM ACh; ref Nelson et al., 2001; cited from earlier work
human α3β4 receptors = settings: ref Chavez-Noriega et al., 1997; cited from earlier work
rα3β4 receptors = settings: ref Wong et al., 1995; cited from earlier work
α7 nAChRs [6] = format: cell-based, mouse
α7 nAChRs [7] = format: cell-based, mouse; remark: listed apart in the source
α7 receptors = α7 receptors (Gallus gallus, UniProt P22770); format: cell-based, chick
Chain of α7 receptors (P22770 23-502 limits assumed): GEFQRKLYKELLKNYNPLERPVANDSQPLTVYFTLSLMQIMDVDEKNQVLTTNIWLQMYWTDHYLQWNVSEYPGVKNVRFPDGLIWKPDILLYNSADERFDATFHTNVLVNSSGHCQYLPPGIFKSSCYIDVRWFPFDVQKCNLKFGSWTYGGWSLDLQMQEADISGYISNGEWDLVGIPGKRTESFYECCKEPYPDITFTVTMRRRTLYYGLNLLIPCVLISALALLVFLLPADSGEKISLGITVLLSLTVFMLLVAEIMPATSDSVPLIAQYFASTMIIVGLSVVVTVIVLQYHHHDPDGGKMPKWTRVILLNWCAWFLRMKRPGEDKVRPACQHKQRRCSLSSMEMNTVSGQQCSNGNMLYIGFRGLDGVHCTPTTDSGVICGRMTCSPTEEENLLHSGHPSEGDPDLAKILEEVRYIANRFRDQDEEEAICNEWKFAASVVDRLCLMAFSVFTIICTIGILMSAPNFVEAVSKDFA

α7 nAChRs [8] = biological target: T1, α7 nAChRs (Mus musculus, UniProt P49582); format: cell-based
T1 sequence (P49582 23-502): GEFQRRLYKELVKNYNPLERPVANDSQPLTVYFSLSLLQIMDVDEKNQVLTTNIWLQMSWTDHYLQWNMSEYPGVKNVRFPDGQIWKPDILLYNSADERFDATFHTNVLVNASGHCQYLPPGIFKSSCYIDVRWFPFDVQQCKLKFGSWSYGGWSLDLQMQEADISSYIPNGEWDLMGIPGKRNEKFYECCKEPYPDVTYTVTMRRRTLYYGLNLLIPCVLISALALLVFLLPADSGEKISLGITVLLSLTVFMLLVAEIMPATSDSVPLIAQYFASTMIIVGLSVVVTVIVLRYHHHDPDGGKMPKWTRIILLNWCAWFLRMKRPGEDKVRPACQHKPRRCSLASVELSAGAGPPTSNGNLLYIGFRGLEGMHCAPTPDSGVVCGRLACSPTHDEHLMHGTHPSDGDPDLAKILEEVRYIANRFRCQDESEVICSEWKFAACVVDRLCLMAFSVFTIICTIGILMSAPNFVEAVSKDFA

α7 nAChRs [9] = biological target: T1, α7 nAChRs; format: cell-based; remark: listed apart in the source
[10] = tested on: SCG neurons from α5α7β2 KO animals; format: cell-based, mouse

Chain of hetero-oligomeric nAChR binding sites in SCG membranes (Q8R4G9 26-499): as the sequence (Q8R4G9 26-499) above
Chain of hetero-oligomeric nAChR binding sites in SCG membranes (Q8R493 21-495): as the sequence (Q8R493 21-495) above
Chain of hetero-oligomeric nAChR binding sites in SCG membranes (Q2MKA5 30-467 partner): as the sequence (Q2MKA5 30-467 partner) above
Chain of hetero-oligomeric nAChR binding sites in SCG membranes (Q9ERK7 26-501 partner): as the sequence (Q9ERK7 26-501) above

## Clc1ccc(C2CC3CCC2N3)cn1 (racemic) [[^3H]-epibatidine, [5,6.bicycloheptyl-^3H](+/−)epibatidine]
[1]; averaged from 4 experiments, P18 WT SCG membranes
  Bmax of [3H]-epibatidine binding: 345.8 ± 25.6 fmol/mg protein
[1]; single experiment shown in Fig. 1A
  Bmax of [3H]-epibatidine binding: 371.2 ± 13.5 fmol/mg protein
[2]
  Kd: 0.137 nM

## CC(=O)OCC[N+](C)(C)C [ACh, acetylcholine]
hα3β4; probed with 300 μM ACh
  decay time constant: 495 ms
[3]
  Af (fast amplitude, share of current): 50.5 ± 2.1%
  Af + As + C (total amplitude): 1166 ± 77 pA
  Af, fast: −1171 pA
  As (slow amplitude, share of current): 36.2 ± 1.7%
  As, slow: −472 pA
  C (plateau, share of current): 13.2 ± 1.0%
  EC50: 169 ± 25.2 µM
  Hill coefficient: 0.67 ± 0.04
  Tf, fast: 115 ms
  Ts, slow: 1477 ms
  plateau: −140 pA
[4]
  Af (fast amplitude, share of current): 16.8 ± 1.1 % ^1
  Af + As + C (total amplitude): 3907 ± 230 pA ^6
  Af, fast: −809 pA
  As (slow amplitude, share of current): 48.6 ± 2.6 % ^3
  As, slow: −2899 pA
  C (plateau, share of current): 34.5 ± 2.8 % ^5
  Tf (fast decay time constant): 449 ± 30 (msec) ^2
  Tf, fast: 0.47 s
  Ts (slow decay time constant): 5592 ± 509 (msec) ^4
  Ts, slow: 6.98 s
  plateau: −943 pA
[5]
  Af (fast amplitude, share of current): 13.0 ± 0.7 % ^1
  Af + As + C (total amplitude): 3747 ± 215 pA ^6
  As (slow amplitude, share of current): 56.3 ± 2.3 % ^3
  C (plateau, share of current): 30.5 ± 2.8 % ^5
  Hill coefficient: 1.60 ± 0.05
  Tf (fast decay time constant): 444 ± 22 (msec) ^2
  Ts (slow decay time constant): 5495 ± 496 (msec) ^4
hα3α5β4
  decay time constant: 563 ms

## O=c1cccc2n1C[C@@H]1CNC[C@H]2C1 [Cytisine, cytisine]
Human α3β4 receptors
  potency ratio cytisine/DMPP: 4
hα3β4
  potency ratio cytisine/DMPP: 1.29
rα3β4 receptors
  potency ratio cytisine/DMPP: 1.47
[4]
  EC50: 37.7 ± 2.43 µM
  Hill coefficient: 1.10 ± 0.02
  low-concentration potency ratio cytisine/DMPP: 0.76 ± 0.04 and 0.76
  potency ratio cytisine/DMPP (low concentration): 0.67
[4]; read-out: fictitious EC50
  EC50: 26.2 µM
[5]
  Hill coefficient: 1.44 ± 0.06
  low-concentration potency ratio cytisine/DMPP: 1.23
  potency ratio cytisine/DMPP (low concentration): 1.34
[5]; EC50
  EC50: 34.5 ± 2.26 µM
[5]; fictitious EC50
  EC50: 21.7 µM

## C[N+]1(C)CCN(c2ccccc2)CC1.[I-] [DMPP, 1,1-dimethyl-4-phenylpiperazinium iodide]
[3]
  EC50: 11 ± 1.79 µM
  Hill coefficient: 1.21 ± 0.12
[4]
  EC50: 23 ± 1.17 µM
  Hill coefficient: 1.79 ± 0.08
[4]; read-out: fictitious EC50
  EC50: 39.2 µM
[5]
  Hill coefficient: 1.91 ± 0.06
[5]; EC50
  EC50: 19 ± 0.76 µM
[5]; fictitious EC50
  EC50: 16.1 µM

## CCN1C[C@]2(COC(=O)c3ccccc3N3C(=O)C[C@H](C)C3=O)CC[C@H](OC)[C@@]34[C@@H]5C[C@H]6[C@H](OC)[C@@H]5[C@](O)(C[C@@H]6OC)[C@@](O)([C@@H](OC)[C@H]23)[C@@H]14 [MLA, methyllycaconitine]
α7 nAChRs [6]
  effect of MLA on peak currents in response to 500 μM ACh: unaffected
α7 nAChRs [7]
  effect of MLA on peak currents in response to 500 μM ACh: unaffected

## COc1cc(OC)c(NC(=O)Nc2cc(C)on2)cc1Cl [PNU-120596]
α7 receptors
  Peak currents in response to 10 mM choline in the presence of PNU-120596: 1688 ± 204 pA/pF
α7 nAChRs [8]
  choline-induced currents with 10 μM PNU-120596 versus without: significantly larger
α7 nAChRs [6]; n = 14
  peak currents in response to 300 μM ACh in the presence of 10 μM PNU-120596: somewhat enhanced
α7 nAChRs [9]
  choline-induced currents with 10 μM PNU-120596 versus without: significantly larger
α7 nAChRs [7]; n = 13
  peak currents in response to 300 μM ACh in the presence of 10 μM PNU-120596: somewhat reduced
[10]
  choline-induced currents with 10 μM PNU-120596 versus without: not significantly different
[10]; n = 26
  peak currents in response to 300 μM ACh in the presence of 10 μM PNU-120596: somewhat enhanced

## C[N+](C)(C)CCO [choline]
α7 receptors
  Peak currents in response to 10 mM choline: 40.4 ± 3.8 pA/pF
α7 nAChRs [6]
  currents induced by choline: slowly decaying currents of considerable amplitude
α7 nAChRs [9]
  currents induced by choline: negligible currents
